From US12492196B2, “Thienyloxazolones and analogues” (Bayer Aktiengesellschaft, priority 2019, dated 2025)

Legend:
[1] = tested on: Xanthomonas campestris pv. campestris; experiment: In vivo preventive test on Xanthomonas campestris pv. campestris (black rot on cabbage); settings: Xanthomonas campestris, cabbage, evaluated 8 or 10 days after inoculation, read-out: efficacy; for pest or weed control at 31 ppm: 31 ppm of active ingredient; for pest or weed control at 125 ppm: 125 ppm of active ingredient
Experimental: (§1) The tested active ingredients were prepared by homogenization in a mixture of acetone/Dimethyl sulfoxide/Tween®, and then diluted with water to obtain the desired active material concentration.
(§2) The young plants of cabbage were treated by spraying the active ingredient prepared as described above. Control plants were treated only with an aqueous solution of acetone/Dimethyl sulfoxide/Tween®.
After 72 hours, the plants were contaminated by spraying the leaves with an aqueous bacteria suspension of Xanthomonas campestris pv. campestris. The contaminated cabbage plants were incubated for 8 or 10 days at 27° C. at 95% relative humidity.
The test was evaluated 8 or 10 days after the inoculation. 0% means an efficacy which corresponds to that of the control plants while an efficacy of 100% means that no disease was observed.
Compound CMP1 was tested in an in vivo preventive test on Xanthomonas campestris pv. campestris (black rot on cabbage) in the same conditions as described in Example F.

[2] = tested on: salicylate responsive promoter sequence of the PR1 (pathogenesis-related protein I) gene (AT2G14610); experiment: Induction of defense gene expression in Arabidopsis thaliana (PR1 promoter-GFP reporter plants); type: in vivo; settings: 72 h, 3rd day after spraying, mock treated leaves set as 1.00, read-out: relative fluorescence value; for fold induction at 75 ppm: 75 ppm of compound
Experimental: Arabidopsis thaliana reporter plants containing the coding sequence of a green fluorescent protein (GFP) linked to the salicylate responsive promoter sequence of the PR1 (pathogenesis-related protein I) gene (AT2G14610) were grown for five days and then sprayed with compounds. On the 3rd day after spraying, plant fluorescence was assessed with a MacroFluo instrument from Leica Microsystems (Wetzlar, Germany). Fluorescences were quantified with the Meta-Morph Microscopy Automation & Image Analysis Software (Molecular Devices, Sunnyvale, Calif., United States).
Background fluorescence in mock treated leaves was set as 1.00.

Uromyces appendiculatus = experiment: In vivo preventive test on Uromyces appendiculatus (bean rust); settings: Uromyces appendiculatus, 240 h, bean, evaluated 10 days after inoculation, read-out: efficacy; for pest or weed control at 125 ppm: 125 ppm of active ingredient; for pest or weed control at 500 ppm: 500 ppm of active ingredient; for pest or weed control at 31 ppm: 31 ppm of active ingredient
Experimental: as §1
The young plants of bean were treated by spraying the active ingredient prepared as described above.
Control plants were treated only with an aqueous solution of acetone/Dimethyl sulfoxide/Tween®.
After 72 hours, the plants were contaminated by spraying the leaves with an aqueous suspension of Uromyces appendiculatus spores. The contaminated bean plants were incubated for 24 hours at 20° C. and at 100% relative humidity and then for 9 days at 20° C. and at 70-80% relative humidity.
The test was evaluated 10 days after the inoculation. 0% means an efficacy which corresponds to that of the control plants while an efficacy of 100% means that no disease was observed.
Compound CMP1 was tested in an in vivo preventive test on Uromyces appendiculatus (bean rust) in the same conditions as described in Example G.

[3] = tested on: Colletotrichum lindemuthianum; experiment: Colletotrichum lindemuthianum in vitro cell test; type: cell-based; settings: 144 h, 20 ppm of active ingredient, 6 days incubation, read-out: efficacy (direct activity, inhibition of fungal growth)
Experimental: Solvent: DMSO Culture medium: 14.6 g anhydrous D-glucose (VWR), 7.1 g Mycological Peptone (Oxoid), 1.4 g granulated Yeast Extract (Merck), QSP 1 liter Inoculum: spores suspension Fungicides were solubilized in DMSO and the solution used to prepare the required range of concentrations. The final concentration of DMSO used in the assay was ≤1%. A spore suspension of C. lindemuthianum was prepared and diluted to the desired spore density. Fungicides were evaluated for their ability to inhibit spores germination and mycelium growth in liquid culture assay. The compounds were added in the desired concentration to the culture medium with spores. After 6 days incubation, fungi-toxicity of compounds was determined by spectrometric measurement of mycelium growth. Inhibition of fungal growth was determined by comparing the absorbance values in wells containing the fungicides with the absorbance in control wells without fungicides.

[4] = tested on: Xanthomonas campestris pv. campestris; experiment: Xanthomonas campestris pv. campestris in vitro cell test; type: cell-based; settings: 20 ppm of active ingredient, 24 h incubation, read-out: efficacy (direct activity, inhibition of bacteria growth)
Experimental: Solvent: DMSO Culture medium: LB broth medium (Luria Broth Miller) Sigma Inoculum: bacteria suspension Compounds were solubilized in DMSO and the solution used to prepare the required range of concentrations. The final concentration of DMSO used in the assay was ≤1%. Inoculum was prepared from a pre-culture of bacteria grown in liquid medium and diluted to the desired optical density (OD). Compounds were evaluated for their ability to inhibit bacteria growth in liquid culture assay. The compounds were added in the desired concentrations to culture medium containing the bacteria suspension. After 24 h of incubation, the efficacy of compounds was determined by spectrometric measurement of bacteria growth. Inhibition was determined by comparing the absorbance values in wells containing the compounds with the absorbance in control wells without active ingredients.

[5] = tested on: Colletotrichum lindemuthianum; experiment: In vivo preventive test on Colletotrichum lindemuthianum (Antrachnose on bean); settings: Colletotrichum lindemuthianum, 144 h, bean, evaluated 6 days after inoculation, read-out: efficacy; for pest or weed control at 500 ppm: 500 ppm of active ingredient; for pest or weed control at 31 ppm: 31 ppm of active ingredient
Experimental: The tested active ingredients were prepared by homogenization in a mixture of acetone/Dimethyl sulfoxide/Tween®, and then diluted with water to obtain the desired active material concentration. The young plants of bean were treated by spraying the active ingredient prepared as described above. Control plants were treated only with an aqueous solution of acetone/Dimethyl sulfoxide/Tween®.
After 72 hours, the plants were contaminated by spraying the leaves with an aqueous suspension of Colletotrichum lindemuthianum spores. The contaminated bean plants were incubated for 24 hours at 20° C. and at 100% relative humidity and then for 5 days at 20° C. and at 90% relative humidity.
The test was evaluated 6 days after the inoculation. 0% means an efficacy which corresponds to that of the control plants while an efficacy of 100% means that no disease was observed.
Compound CMP1 was tested in an in vivo preventive test on Colletotrichum lindemuthianum (Antrachnose on bean) in the same conditions as described in Example D.

Peronospora parasitica = experiment: In vivo preventive test on Peronospora parasitica (crucifer downy mildew); settings: Hyaloperonospora parasitica, 120 h; 125 ppm of active ingredient; cabbage; evaluated 5 days after inoculation; read-out: efficacy
Experimental: as §1, §2
After 72 hours, the plants were contaminated by spraying the leaves with an aqueous suspension of Peronospora parasitica spores. The contaminated cabbage plants were incubated for 5 days at 20° C. and at 100% relative humidity.
The test was evaluated 5 days after the inoculation. 0% means an efficacy which corresponds to that of the control plants while an efficacy of 100% means that no disease was observed.

[6] = Log P by HPLC on reversed phase columns (EEC directive 79/831 Annex V.A8); type: physicochemical
Experimental: In the above table, measurement of Log P values was performed according to EEC directive 79/831 Annex V.A8 by HPLC (High Performance Liquid Chromatography) on reversed phase columns with the following methods: • [^a] Log P value is determined by measurement of LC-UV, in an acidic range, with 0.1% formic acid in water and acetonitrile as eluent (linear gradient from 10% acetonitrile to 95% acetonitrile). • [^b] Log P value is determined by measurement of LC-UV, in a neutral range, with 0.001 molar ammonium acetate solution in water and acetonitrile as eluent (linear gradient from 10% acetonitrile to 95% acetonitrile). • [^c] Log P value is determined by measurement of LC-UV, in an acidic range, with 0.1% phosphoric acid and acetonitrile as eluent (linear gradient from 10% acetonitrile to 95% acetonitrile).
If more than one Log P value is available within the same method, all the values are given and separated by “+”.
Calibration was done with straight-chain alkan2-ones (with 3 to 16 carbon atoms) with known Log P values (measurement of Log P values using retention times with linear interpolation between successive alkanones). Lambda-max-values were determined using UV-spectra from 200 nm to 400 nm and the peak values of the chromatographic signals.

[7] = reversed phase HPLC columns, method [a]: LC-UV, acidic range, 0.1% formic acid in water and acetonitrile as eluent

| chromatographic logP [6, 7] | SMILES | pest or weed control at 31 ppm [1] [%] | pest or weed control at 125 ppm [1] [%] | fold induction at 300 ppm [2] | pest or weed control at 125 ppm (Uromyces appendiculatus) [%] | pest or weed control at 500 ppm (Uromyces appendiculatus) [%] | inhibition at 20 ppm [3] [%] | inhibition at 20 ppm [4] [%] | pest or weed control at 500 ppm [5] [%] | pest or weed control at 125 ppm (Peronospora parasitica) [%] | fold induction at 75 ppm [2] | pest or weed control at 31 ppm (Uromyces appendiculatus) [%] | chromatographic logP ([6]; given in preparation examples, method not marked) | pest or weed control at 31 ppm [5] [%] |
| --- | --- | --- | --- | --- | --- | --- | --- | --- | --- | --- | --- | --- | --- | --- |
| 4.32 | Cc1c(C2=NC3(CC3)C(=O)O2)sc(Br)c1Cl [I.12] | 70 to 79 | 90 to 100 | > 2 | 90 to 100 | 90 to 100 | ≤ 30 | ≤ 30 | 80 to 89 | 90 to 100 | – | – | – | – |
| – | Cc1c(C2=NC3(CC3)C(=O)O2)sc(C#N)c1Br [I.06, 3-bromo-4-methyl-5-(7-oxo-6-oxa-4-azaspiro[2.4]hept-4-en-5-yl)thiophene-2-carbonitrile] | 90 to 100 | 90 to 100 | > 2 | 70 to 79 | 90 to 100 | ≤ 30 | ≤ 30 | 90 to 100 | 90 to 100 | > 2 | 70 to 79 | 3.37 | – |
| 4.01 | O=C1OC(c2sc(Cl)c(Br)c2Cl)=NC12CC2 [I.09] | 70 to 79 | – | > 2 | 90 to 100 | 90 to 100 | ≤ 30 | ≤ 30 | 90 to 100 | 90 to 100 | > 2 | 90 to 100 | – | 70 to 79 |
| 4.55 | O=C1OC(c2sc(Cl)c(Cl)c2Br)=NC12CCC2 [I.22] | – | – | – | 90 to 100 | – | ≤ 30 | ≤ 30 | – | 90 to 100 | – | 90 to 100 | – | 80 to 89 |
| 4.12 | O=C1OC(c2sc(Cl)c(Br)c2Br)=NC12CC2 [I.08] | 80 to 89 | 70 to 79 | > 2 | 90 to 100 | 90 to 100 | ≤ 30 | ≤ 30 | 90 to 100 | 90 to 100 | > 2 | 90 to 100 | – | – |
